Where two headings read alike, the source gives them in different places.
How the values were obtained:
Androgen receptor (AR) = target: T1, Androgen receptor (AR) (Homo sapiens, UniProt P10275, T878A); assay: Assessment of AR proteolytic activity (Western blotting of LNCap cell lysates); format: cell-based; details: 24 hours of treatment, Western blotting quantified with Image J
T1 construct: 5.5×10^5 LNCap cells were injected into each well of a 6-well plate; endogenous in cells; host or cells: LNCaP
T1 sequence (P10275 1-920 T878A): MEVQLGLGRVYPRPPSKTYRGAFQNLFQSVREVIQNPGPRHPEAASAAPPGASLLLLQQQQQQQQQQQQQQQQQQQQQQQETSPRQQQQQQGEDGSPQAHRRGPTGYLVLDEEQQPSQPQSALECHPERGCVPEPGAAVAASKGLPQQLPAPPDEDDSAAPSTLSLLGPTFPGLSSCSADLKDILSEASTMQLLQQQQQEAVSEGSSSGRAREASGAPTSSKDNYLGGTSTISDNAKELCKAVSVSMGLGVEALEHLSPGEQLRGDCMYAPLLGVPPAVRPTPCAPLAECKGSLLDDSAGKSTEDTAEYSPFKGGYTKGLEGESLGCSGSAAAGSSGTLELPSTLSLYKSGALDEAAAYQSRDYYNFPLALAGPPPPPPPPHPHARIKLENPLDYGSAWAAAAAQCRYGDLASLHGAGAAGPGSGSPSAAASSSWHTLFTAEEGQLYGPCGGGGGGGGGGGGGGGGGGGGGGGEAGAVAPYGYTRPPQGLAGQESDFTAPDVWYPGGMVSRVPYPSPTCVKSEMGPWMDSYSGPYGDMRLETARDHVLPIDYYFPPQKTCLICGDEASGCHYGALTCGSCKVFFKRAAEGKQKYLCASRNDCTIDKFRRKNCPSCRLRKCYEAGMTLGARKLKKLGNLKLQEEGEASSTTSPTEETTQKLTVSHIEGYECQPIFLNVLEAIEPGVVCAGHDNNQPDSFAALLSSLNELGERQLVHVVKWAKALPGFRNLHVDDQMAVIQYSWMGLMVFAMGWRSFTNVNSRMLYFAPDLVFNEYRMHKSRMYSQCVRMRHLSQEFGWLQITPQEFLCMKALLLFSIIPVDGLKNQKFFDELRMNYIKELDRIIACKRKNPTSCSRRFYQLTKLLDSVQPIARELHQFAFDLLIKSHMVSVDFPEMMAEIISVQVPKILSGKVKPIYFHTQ
Outline: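 LNCap cells seeded at 5.5×10^5 per well and treated with compound for 24 hours. Lysates prepared in RIPA buffer (pH 7.5, with protease inhibitors). AR protein levels assessed by Western blot with densitometric quantification.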

VCaP cells [1] = system: VCaP cells
VCaP cells [2] = assay: Cytotoxicity assessment (Cell-titer-glo cell viability), VCaP; details: read-out: VCaP (CC50); VCaP cells, 6 days of treatment, Cell-titer-glo, vs DMSO

Row | Structure (SMILES) | Degradation (1 μM treated in LNCaP, % AR remaining) (Androgen receptor (AR)) [%] | CC50 (VCaP cells [1]) [nM] | CC50 (VCaP cells [2]) [nM]
1 | CC1(C)C(NC(=O)c2ccc(N3CCN(CCCOC4CCN(C(=O)C5CN(c6ccc7nnn(C8CCC(=O)NC8=O)c(=O)c7c6)C5)CC4)CC3)cc2)C(C)(C)C1Oc1ccc(C#N)c(Cl)c1 (stereo not shown) [Example 36, N-((1r,3r)-3-(3-chloro-4-cyanophenoxy)-2,2,4,4-tetramethylcyclobutyl)-4-(4-(3-((1-(1-(3-(2,6-dioxopiperidin-3-yl)-4-oxo-3,4-dihydrobenzo[d][1,2,3]triazin-6-yl)azetidine-3-carbonyl)piperidin-4-yl)oxy)propyl)piperazin-1-yl)benzamide] | 9.8 | 36.5 | –
2 | CC1(C)C(NC(=O)c2ccc(N3CCN(CCCOC4CCN(C(=O)COc5ccc6nnn(C7CCC(=O)NC7=O)c(=O)c6c5)CC4)CC3)cc2)C(C)(C)C1Oc1ccc(C#N)c(Cl)c1 (stereo not shown) [Example 38, N-((1r,3r)-3-(3-chloro-4-cyanophenoxy)-2,2,4,4-tetramethylcyclobutyl)-4-(4-(3-((1-(2-((3-(2,6-dioxopiperidin-3-yl)-4-oxo-3,4-dihydrobenzo[d][1,2,3]triazin-6-yl)oxy)acetyl)piperidin-4-yl)oxy)propyl)piperazin-1-yl)benzamide] | 27.3 | 43.2 | –
3 | CC1(C)C(NC(=O)c2ccc(N3CCN(CCCOC4CCN(c5ccc6nnn(C7CCC(=O)NC7=O)c(=O)c6c5)CC4)CC3)cc2)C(C)(C)C1Oc1ccc(C#N)c(Cl)c1 (stereo not shown) [Example 39, N-((1r,3r)-3-(3-chloro-4-cyanophenoxy)-2,2,4,4-tetramethylcyclobutyl)-4-(4-(3-((1-(3-(2,6-dioxopiperidin-3-yl)-4-oxo-3,4-dihydrobenzo[d][1,2,3]triazin-6-yl)piperidin-4-yl)oxy)propyl)piperazin-1-yl)benzamide] | 2.1 | 86.6 | –
4 | CC1(C)C(NC(=O)c2ccc(N3CCN(C(=O)COc4ccc5nnn(C6CCC(=O)NC6=O)c(=O)c5c4)CC3)cc2)C(C)(C)C1Oc1ccc(C#N)c(Cl)c1 (stereo not shown) [Example 41, N-((1r,3r)-3-(3-chloro-4-cyanophenoxy)-2,2,4,4-tetramethylcyclobutyl)-4-(4-(2-((3-(2,6-dioxopiperidin-3-yl)-4-oxo-3,4-dihydrobenzo[d][1,2,3]triazin-6-yl)oxy)acetyl)piperazin-1-yl)benzamide] | 12.3 | 20 | –
5 | CC1(C)C(NC(=O)c2ccc(N3CCN(C(=O)C4CN(c5ccc6nnn(C7CCC(=O)NC7=O)c(=O)c6c5)C4)CC3)cc2)C(C)(C)C1Oc1ccc(C#N)c(Cl)c1 (stereo not shown) [Example 43, N-((1r,3r)-3-(3-chloro-4-cyanophenoxy)-2,2,4,4-tetramethylcyclobutyl)-4-(4-(1-(3-(2,6-dioxopiperidin-3-yl)-4-oxo-3,4-dihydrobenzo[d][1,2,3]triazin-6-yl)azetidine-3-carbonyl)piperazin-1-yl)benzamide] | 33.6 | 37.3 | –
6 | CC1(C)C(NC(=O)c2ccc(N3CCN(CCCC4CCN(C(=O)COc5ccc6nnn(C7CCC(=O)NC7=O)c(=O)c6c5)CC4)CC3)cc2)C(C)(C)C1Oc1ccc(C#N)c(Cl)c1 (stereo not shown) [Example 45, N-((1r,3r)-3-(3-chloro-4-cyanophenoxy)-2,2,4,4-tetramethylcyclobutyl)-4-(4-(3-(1-(2-((3-(2,6-dioxopiperidin-3-yl)-4-oxo-3,4-dihydrobenzo[d][1,2,3]triazin-6-yl)oxy)acetyl)piperidin-4-yl)propyl)piperazin-1-yl)benzamide] | 21.1 | 46.6 | –
7 | CC1(C)[C@H](NC(=O)c2ccc(N3CCN(CCCC4CCN(c5ccc6nnn(C7CCC(=O)NC7=O)c(=O)c6c5)CC4)CC3)cc2)C(C)(C)[C@H]1Oc1ccc(C#N)c(Cl)c1 (stereo partly shown) [Example 48, N-((1r,3r)-3-(3-chloro-4-cyanophenoxy)-2,2,4,4-tetramethylcyclobutyl)-4-(4-(3-(1-(3-(2,6-dioxopiperidin-3-yl)-4-oxo-3,4-dihydrobenzo[d][1,2,3]triazin-6-yl)piperidin-4-yl)propyl)piperazin-1-yl)benzamide] | 35.2 | 77 | –
8 | CC1(C)C(NC(=O)c2ccc(N3CCN(CC4(O)CCN(C(=O)CNc5ccc6nnn(C7CCC(=O)NC7=O)c(=O)c6c5)CC4)CC3)cc2)C(C)(C)C1Oc1ccc(C#N)c(Cl)c1 (stereo not shown) [Example 53, N-((1r,3r)-3-(3-chloro-4-cyanophenoxy)-2,2,4,4-tetramethylcyclobutyl)-4-(4-((1-((3-(2,6-dioxopiperidin-3-yl)-4-oxo-3,4-dihydrobenzo[d][1,2,3]triazin-6-yl)glycyl)-4-hydroxypiperidin-4-yl)methyl)piperazin-1-yl)benzamide] | 5.8 | 19.7 | –
9 | CC1(C)[C@H](NC(=O)c2ccc(N3CCN(CC4(O)CCN(C(=O)COc5ccc6nnn(C7CCC(=O)NC7=O)c(=O)c6c5)CC4)CC3)cc2)C(C)(C)[C@H]1Oc1ccc(C#N)c(Cl)c1 (stereo partly shown) [Example 54, N-((1r,3r)-3-(3-chloro-4-cyanophenoxy)-2,2,4,4-tetramethylcyclobutyl)-4-(4-((1-(2-((3-(2,6-dioxopiperidin-3-yl)-4-oxo-3,4-dihydrobenzo[d][1,2,3]triazin-6-yl)oxy)acetyl)-4-hydroxypiperidin-4-yl)methyl)piperazin-1-yl)benzamide] | 7.7 | 553 | –
10 | CC1(C)C(NC(=O)c2ccc(N3CCN(CC4(O)CCN(C(=O)C5CN(c6ccc7nnn(C8CCC(=O)NC8=O)c(=O)c7c6)C5)CC4)CC3)cc2)C(C)(C)C1Oc1ccc(C#N)c(Cl)c1 (stereo not shown) [Example 56, N-((1r,3r)-3-(3-chloro-4-cyanophenoxy)-2,2,4,4-tetramethylcyclobutyl)-4-(4-((1-(1-(3-(2,6-dioxopiperidin-3-yl)-4-oxo-3,4-dihydrobenzo[d][1,2,3]triazin-6-yl)azetidine-3-carbonyl)-4-hydroxypiperidin-4-yl)methyl)piperazin-1-yl)benzamide] | 21.3 | 36.1 | –
11 | CC1(C)C(NC(=O)c2ccc(N3CCN(C(=O)CN4CCN(c5ccc6nnn(C7CCC(=O)NC7=O)c(=O)c6c5)CC4)CC3)cc2)C(C)(C)C1Oc1ccc(C#N)c(Cl)c1 (stereo not shown) [Example 57, N-((1r,3r)-3-(3-chloro-4-cyanophenoxy)-2,2,4,4-tetramethylcyclobutyl)-4-(4-(2-(4-(3-(2,6-dioxopiperidin-3-yl)-4-oxo-3,4-dihydrobenzo[d][1,2,3]triazin-6-yl)piperazin-1-yl)acetyl)piperazin-1-yl)benzamide] | 13.3 | 225 | –
12 | CC1(C)C(NC(=O)c2ccc(N3CCN(CC4CCN(C(=O)CN5CCN(c6ccc7nnn(C8CCC(=O)NC8=O)c(=O)c7c6)CC5)CC4)CC3)cc2)C(C)(C)C1Oc1ccc(C#N)c(Cl)c1 (stereo not shown) [Example 58, N-((1r,3r)-3-(3-chloro-4-cyanophenoxy)-2,2,4,4-tetramethylcyclobutyl)-4-(4-((1-(2-(4-(3-(2,6-dioxopiperidin-3-yl)-4-oxo-3,4-dihydrobenzo[d][1,2,3]triazin-6-yl)piperazin-1-yl)acetyl)piperidin-4-yl)methyl)piperazin-1-yl)benzamide] | 11.4 | 330 | –
13 | CC1(C)C(NC(=O)c2ccc(N3CCN(CC4CCN(CCNC(=O)COc5ccc6nnn(C7CCC(=O)NC7=O)c(=O)c6c5)CC4)CC3)cc2)C(C)(C)C1Oc1ccc(C#N)c(Cl)c1 (stereo not shown) [Example 60, N-((1r,3r)-3-(3-chloro-4-cyanophenoxy)-2,2,4,4-tetramethylcyclobutyl)-4-(4-((1-(2-(2-((3-(2,6-dioxopiperidin-3-yl)-4-oxo-3,4-dihydrobenzo[d][1,2,3]triazin-6-yl)oxy)acetamido)ethyl)piperidin-4-yl)methyl)piperazin-1-yl)benzamide] | 20.3 | 3280 | –
14 | CC1(C)[C@H](NC(=O)c2ccc(C#CCC3CCN(C(=O)C4CCN(c5ccc6nnn(C7CCC(=O)NC7=O)c(=O)c6c5)CC4)CC3)cc2)C(C)(C)[C@H]1Oc1ccc(C#N)c(Cl)c1 (stereo partly shown) [Example 86, N-((1r,3r)-3-(3-chloro-4-cyanophenoxy)-2,2,4,4-tetramethylcyclobutyl)-4-(3-(1-(1-(3-(2,6-dioxopiperidin-3-yl)-4-oxo-3,4-dihydrobenzo[d][1,2,3]triazin-6-yl)piperidine-4-carbonyl)piperidin-4-yl)prop-1-yn-1-yl)benzamide] | 20 | – | 34.9

From patent US20240018123A1, “COMPOUND FOR INHIBITING OR DISINTEGRATING ANDROGEN RECEPTOR, AND PHARMACEUTICAL USE THEREOF” (KOREA RESEARCH INSTITUTE OF CHEMICAL TECHNOLOGY, priority 2020, published 2024)
